Results published in ChEMBL document CHEMBL1201862, “PubChem BioAssay data set” (2004).
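Each compound was tested at five concentrations against cells in 96-well plates for 48 hours. The concentration for 50% growth inhibition is given as GI50.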 Calls of active or inactive are those of the source. No stated cut-off is given here; in the data, active = GI50 up to about 1.1 µM and inactive = higher.

What was measured:
Assay in all cases: inhibition of tumour cell growth, NCI panel, 48 h
[1] = tested on: 786-0
[2] = tested on: K562
[3] = tested on: NCI-H23
[4] = tested on: HT-29
[5] = tested on: XF498
[6] = tested on: KM12
[7] = tested on: Malme-3M
[8] = tested on: NCI-H460
[9] = tested on: HOP-62
[10] = tested on: UACC-257
[11] = tested on: UO-31
[12] = tested on: IGROV-1
[13] = tested on: CCRF-CEM
[14] = tested on: SNB-19
[15] = tested on: LOX IMVI
[16] = tested on: U-251
[17] = tested on: SK-MEL-5
[18] = tested on: OVCAR-5
[19] = tested on: M14
[20] = tested on: SR
[21] = tested on: CAKI-1
[22] = tested on: UACC-62
[23] = tested on: NCI-H522
[24] = tested on: RXF 631
[25] = tested on: DMS-114
[26] = tested on: A549
[27] = tested on: LXFL 529
[28] = tested on: OVCAR-8
[29] = tested on: SF-268
[30] = tested on: SK-MEL-28
[31] = tested on: COLO 205
[32] = tested on: ACHN
[33] = tested on: SF-539
[34] = tested on: HCT-116
[35] = tested on: OVCAR-4
[36] = tested on: HOP-92
[37] = tested on: SW-620
[38] = tested on: SF-295
[39] = tested on: TK-10
[40] = tested on: HCC 2998
[41] = tested on: RXF 393
[42] = tested on: HL-60
[43] = tested on: HOP-18
[44] = tested on: DLD-1
[45] = tested on: SNB-78
[46] = tested on: M19-MEL
[47] = tested on: DMS-273
[48] = tested on: SN12C
[49] = tested on: OVCAR-3
[50] = tested on: MOLT-4
[51] = tested on: SNB-75
[52] = tested on: NCI-H226
[53] = tested on: EKVX
[54] = tested on: SK-MEL-2
[55] = tested on: SK-OV-3
[56] = tested on: KM-20L2
[57] = tested on: HCT-15
[58] = tested on: RPMI-8226
[59] = tested on: A498

Nc1c(Br)c(=O)[nH]c(=O)n1COCCO
GI50 [1]: > 100 µM (inactive) | GI50 [2]: > 100 µM (inactive) | GI50 [3]: > 100 µM (inactive) | GI50 [4]: > 100 µM (inactive) | GI50 [5]: > 100 µM (inactive) | GI50 [6]: > 100 µM (inactive) | GI50 [7]: > 100 µM (inactive) | GI50 [8]: > 100 µM (inactive) | GI50 [9]: > 100 µM (inactive) | GI50 [10]: > 100 µM (inactive) | GI50 [11]: > 100 µM (inactive) | GI50 [12]: > 100 µM (inactive) | GI50 [13]: > 100 µM (inactive) | GI50 [14]: > 100 µM (inactive) | GI50 [15]: > 100 µM (inactive) | GI50 [16]: > 100 µM (inactive) | GI50 [17]: > 100 µM (inactive) | GI50 [18]: > 100 µM (inactive) | GI50 [19]: > 100 µM (inactive) | GI50 [20]: > 100 µM (inactive) | GI50 [21]: > 100 µM (inactive) | GI50 [22]: > 100 µM (inactive) | GI50 [23]: > 100 µM (inactive) | GI50 [24]: > 100 µM (inactive) | GI50 [25]: > 100 µM (inactive) | GI50 [26]: > 100 µM (inactive) | GI50 [27]: > 100 µM (inactive) | GI50 [28]: > 100 µM (inactive) | GI50 [29]: > 100 µM (inactive) | GI50 [30]: > 100 µM (inactive) | GI50 [31]: > 100 µM (inactive) | GI50 [32]: > 100 µM (inactive) | GI50 [33]: > 100 µM (inactive) | GI50 [34]: > 100 µM (inactive) | GI50 [35]: > 100 µM (inactive) | GI50 [36]: > 100 µM (inactive) | GI50 [37]: > 100 µM (inactive) | GI50 [38]: > 100 µM (inactive) | GI50 [39]: > 100 µM (inactive) | GI50 [40]: > 100 µM (inactive) | GI50 [41]: > 100 µM (inactive) | GI50 [42]: > 100 µM (inactive) | GI50 [43]: > 100 µM (inactive) | GI50 [44]: > 100 µM (inactive) | GI50 [45]: > 100 µM (inactive) | GI50 [46]: > 100 µM (inactive) | GI50 [47]: > 100 µM (inactive) | GI50 [48]: > 100 µM (inactive) | GI50 [49]: > 100 µM (inactive) | GI50 [50]: > 100 µM (inactive) | GI50 [51]: > 100 µM (inactive)

OCC(O)C(O)c1nn(-c2ccccc2)c2nc3cc(Cl)c(Cl)cc3nc12 (stereo not given)
GI50 [1]: 18.8 µM (inactive) | GI50 [2]: 13.3 µM (inactive) | GI50 [3]: 41.5 µM (inactive) | GI50 [4]: 21.9 µM (inactive) | GI50 [52]: 21.4 µM (inactive) | GI50 [5]: 28.5 µM (inactive) | GI50 [6]: 20.8 µM (inactive) | GI50 [7]: 17.2 µM (inactive) | GI50 [53]: 26.2 µM (inactive) | GI50 [8]: 27.7 µM (inactive) | GI50 [9]: 47.5 µM (inactive) | GI50 [10]: 36.7 µM (inactive) | GI50 [11]: 5.98 µM (inactive) | GI50 [54]: 22.3 µM (inactive) | GI50 [12]: 24.6 µM (inactive) | GI50 [13]: 35.2 µM (inactive) | GI50 [55]: 30.6 µM (inactive) | GI50 [14]: 48.2 µM (inactive) | GI50 [15]: 19.5 µM (inactive) | GI50 [16]: 29.1 µM (inactive) | GI50 [17]: 26.4 µM (inactive) | GI50 [18]: 14.8 µM (inactive) | GI50 [19]: 27.9 µM (inactive) | GI50 [21]: 16.6 µM (inactive) | GI50 [22]: 29.4 µM (inactive) | GI50 [23]: 26.1 µM (inactive) | GI50 [56]: 26.7 µM (inactive) | GI50 [24]: 18.9 µM (inactive) | GI50 [25]: 21 µM (inactive) | GI50 [26]: 15.6 µM (inactive) | GI50 [27]: 20.6 µM (inactive) | GI50 [28]: 20.4 µM (inactive) | GI50 [29]: 21.4 µM (inactive) | GI50 [30]: 41.3 µM (inactive) | GI50 [31]: 24.7 µM (inactive) | GI50 [32]: 19.5 µM (inactive) | GI50 [33]: 24 µM (inactive) | GI50 [34]: 16.8 µM (inactive) | GI50 [35]: 24.7 µM (inactive) | GI50 [57]: 23.6 µM | GI50 [36]: 35.7 µM (inactive) | GI50 [37]: 28.6 µM (inactive) | GI50 [38]: 31.4 µM (inactive) | GI50 [39]: 16.7 µM (inactive) | GI50 [40]: 31.9 µM (inactive) | GI50 [41]: 21.2 µM (inactive) | GI50 [42]: 18.2 µM (inactive) | GI50 [58]: 8.93 µM (inactive) | GI50 [43]: 26.7 µM (inactive) | GI50 [44]: 26.1 µM (inactive) | GI50 [45]: 50.2 µM (inactive) | GI50 [46]: 28.8 µM (inactive) | GI50 [47]: 15.7 µM (inactive) | GI50 [48]: 63.5 µM (inactive) | GI50 [49]: 27.4 µM (inactive) | GI50 [50]: 13.7 µM (inactive) | GI50 [51]: 21.8 µM (inactive)

O=C1C[S+]([O-])c2ccccc2N1 (stereo not given)
GI50 [1]: > 100 µM (inactive) | GI50 [2]: > 100 µM (inactive) | GI50 [3]: > 100 µM (inactive) | GI50 [4]: > 100 µM (inactive) | GI50 [52]: > 100 µM (inactive) | GI50 [5]: > 100 µM (inactive) | GI50 [6]: > 100 µM (inactive) | GI50 [7]: > 100 µM (inactive) | GI50 [53]: > 100 µM (inactive) | GI50 [8]: 66.1 µM (inactive) | GI50 [9]: > 100 µM (inactive) | GI50 [10]: > 100 µM (inactive) | GI50 [11]: > 100 µM (inactive) | GI50 [54]: > 100 µM (inactive) | GI50 [12]: > 100 µM (inactive) | GI50 [13]: > 100 µM (inactive) | GI50 [55]: > 100 µM (inactive) | GI50 [14]: > 100 µM (inactive) | GI50 [15]: 52.6 µM (inactive) | GI50 [16]: > 100 µM (inactive) | GI50 [17]: > 100 µM (inactive) | GI50 [18]: > 100 µM (inactive) | GI50 [19]: > 100 µM (inactive) | GI50 [20]: 45.5 µM (inactive) | GI50 [21]: > 100 µM (inactive) | GI50 [22]: > 100 µM (inactive) | GI50 [23]: > 100 µM (inactive) | GI50 [56]: > 100 µM (inactive) | GI50 [24]: > 100 µM (inactive) | GI50 [26]: > 100 µM (inactive) | GI50 [27]: > 100 µM (inactive) | GI50 [28]: > 100 µM (inactive) | GI50 [29]: 71.8 µM (inactive) | GI50 [30]: 55.1 µM (inactive) | GI50 [31]: 30.8 µM (inactive) | GI50 [32]: > 100 µM (inactive) | GI50 [33]: > 100 µM (inactive) | GI50 [34]: 71.1 µM (inactive) | GI50 [35]: > 100 µM (inactive) | GI50 [57]: > 100 µM | GI50 [36]: > 100 µM (inactive) | GI50 [38]: > 100 µM (inactive) | GI50 [39]: > 100 µM (inactive) | GI50 [40]: > 100 µM (inactive) | GI50 [41]: > 100 µM (inactive) | GI50 [42]: > 100 µM (inactive) | GI50 [58]: 45.8 µM (inactive) | GI50 [43]: > 100 µM (inactive) | GI50 [44]: > 100 µM (inactive) | GI50 [45]: > 100 µM (inactive) | GI50 [46]: > 100 µM (inactive) | GI50 [47]: 16.8 µM (inactive) | GI50 [59]: > 100 µM (inactive) | GI50 [48]: > 100 µM (inactive) | GI50 [49]: > 100 µM (inactive) | GI50 [50]: > 100 µM (inactive) | GI50 [51]: > 100 µM (inactive)
